Measurements published in patent US20220356472A1, “METHODS AND COMPOSITIONS FOR TYPE 2 DIABETES THERAPY” (Sanford Burnham Prebys Medical Discovery Institute, priority 2019, published 2022).

How the values were obtained:
Assay type in all cases: cell-based, mouse
[1] = tested on: islets isolated from WT C57BL/6 mice; assay: Gene expression in isolated islets treated with compounds
Experimental: For this purpose, the effect of a membrane-permeable intracellular Ca^2+-chelator, BAPTA-AM was tested on islets isolated from WT C57BL/6 mice. An overnight incubation with BAPTA-AM (10 μM) reduced both Ins1 and Ins2 mRNA levels (FIG. 6A, “Insulin” panel, Ctrl versus BAPTA-AM). […] On the other hand, tunicamycin (Tm, 0.5 μg/mL) in combination with BAPTA-AM rescued both Ins1 and Ins2 mRNA levels. Concomitantly, Chop and sXBP1 mRNAs, as well as MP mRNA were induced by Tm treatment (FIG. 6A, BAPTA-AM columns versus BAPTA/Tm columns).

[2] = tested on: islets isolated from WT C57BL/6 mice; assay: as above; conditions: HFn 50 nM, vs Ctrl
WT and Chop βKO islets = assay: Ins1/Ins2 transcription in independent batch of islets treated with tunicamycin; conditions: tunicamycin 5 μg/mL
[3] = BAPTA-AM 10 μM, overnight incubation, vs Ctrl
[4] = Tm 0.5 μg/mL in combination with BAPTA-AM, vs BAPTA-AM

CC(=O)OCOC(=O)CN(CC(=O)OCOC(C)=O)c1ccccc1OCCOc1ccccc1N(CC(=O)OCOC(C)=O)CC(=O)OCOC(C)=O [BAPTA-AM]
Chop level [1, 3]: reduced
Ins1 mRNA level [1, 3]: reduced
Ins2 mRNA level [1, 3]: reduced
sXBP1 level [1, 3]: reduced

O=C(CC1NCCCC1O)Cn1cnc2cc(Br)c(Cl)cc2c1=O (centres unmarked) [halofuginone]
ATF4 induction [2]: pronounced ATF4 and Chop induction
Chop induction [2]: pronounced ATF4 and Chop induction
Ins1 mRNA [2]: reduced
Ins2 mRNA [2]: reduced

tunicamycin
Ins1/Ins2 transcription (WT and Chop βKO islets): positive regulation
Chop mRNA [1, 4]: induced
Ins1 mRNA level [1, 4]: rescued
Ins2 mRNA level [1, 4]: rescued
MP mRNA [1, 4]: induced
sXBP1 mRNA [1, 4]: induced
